{"source": "patent US11014884B2", "about": "(Global Blood Therapeutics, Inc., priority 2018, dated 2021)", "target": "T1, hemoglobin (Homo sapiens, UniProt P69905)", "T1 construct": "from tissue; host or cells: whole blood (red blood cells)", "T1 sequence (P69905 2-142 limits assumed)": "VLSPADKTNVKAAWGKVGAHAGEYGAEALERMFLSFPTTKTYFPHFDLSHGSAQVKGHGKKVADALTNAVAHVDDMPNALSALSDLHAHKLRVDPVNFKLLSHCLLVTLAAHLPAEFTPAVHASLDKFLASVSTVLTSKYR", "T1 sequence (P68871 2-147 partner limits assumed)": "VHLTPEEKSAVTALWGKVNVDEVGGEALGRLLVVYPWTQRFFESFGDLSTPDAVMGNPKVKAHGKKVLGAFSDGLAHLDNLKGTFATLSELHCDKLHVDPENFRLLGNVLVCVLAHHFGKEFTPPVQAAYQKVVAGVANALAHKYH", "test": "Whole blood assay: oxygen equilibrium curves (Hemox Analyzer), change in p50", "type": "cell-based", "settings": "whole blood 20% Hct (1 mM Hb), compound 1 mM, equimolar to hemoglobin, 1 h at 37° C.", "description": "Oxygen equilibrium curves (OECs) were collected using a TCS Hemox Analyzer (TCS Scientific Company, New Hope, Pa., USA) to measure changes in the binding affinity of 02 to Hb. Whole blood was incubated for 1 h at 37° C. with the indicated compounds in an equimolar ratio of hemoglobin to compound and diluted into TES (2-[[1,3-dihydroxy-2-(hydroxymethyl)propan-2-yl]amino]ethanesulfonic acid)/saline buffer prior to measurements. For example, for whole blood at 20% hematocrit [Hct], which corresponds to 1 mM Hb, a compound concentration of 1 mM was used (for example, for compounds 1-53), and the incubated sample diluted 50- to 100-fold. The concentration for compound 54 was 1.7 mM and in equimolar ratio to hemoglobin. The diluted samples were then oxygenated with compressed air within the Hemox Analyzer, and the OECs were collected during deoxygenation as previously described (Guarnone et al., Haematologica, 1995, 80, 426-430). p50 (partial pressure of 02 at which Hb is 50% saturated with 02) values were obtained using a non-linear regression analysis. Percentage change in p50 [Δp50(%)] was calculated as follows: Δp50(%)=[(p50 of control)−p50 with compound)/p50 control]×100.", "data": [{"compound": "O=Cc1ccc(C(=O)N2CCCC[C@H]2COc2cccc(O)c2C=O)cc1", "note": "[Compound 13, 2-{[(2S)-1-(4-formylbenzoyl)piperidin-2-yl]methoxy}-6-hydroxybenzaldehyde]", "values": [{"measurement": "Delta-p50 (%)", "value": 45.4, "unit": "%"}]}, {"compound": "COc1cccc(C(=O)N2CCCC[C@H]2COc2cccc(O)c2C=O)c1C=O", "note": "[Compound 33, 2-[(2S)-2-[(2-formyl-3-hydroxyphenoxy)methyl]piperidine-1-carbonyl]-6-methoxybenzaldehyde]", "values": [{"measurement": "Delta-p50 (%)", "value": 84, "unit": "%"}]}, {"compound": "O=Cc1cc(-c2ncccc2COc2cccc(O)c2C=O)ccn1", "note": "[Compound 9, 3-[(2-formyl-3-hydroxyphenoxy)methyl]-[2,4′-bipyridine]-2′-carbaldehyde]", "values": [{"measurement": "Delta-p50 (%)", "value": 36.1, "unit": "%"}]}, {"compound": "O=Cc1ccccc1C(=O)N1CCCCC[C@H]1COc1cccc(O)c1C=O", "note": "[Compound 37]", "values": [{"measurement": "Delta-p50 (%)", "value": 31.5, "unit": "%"}]}, {"compound": "O=Cc1cnccc1C(=O)N1CCCC[C@H]1COc1cccc(O)c1C=O", "note": "[Compound 53, 4-[(2S)-2-[(2-formyl-3-hydroxyphenoxy)methyl]piperidine-1-carbonyl]pyridine-3-carbaldehyde]", "values": [{"measurement": "Delta-p50 (%)", "value": 71.9, "unit": "%"}]}, {"compound": "O=Cc1cccc(-c2ccncc2COc2cccc(O)c2C=O)n1", "note": "[Compound 42, 3′-[(2-formyl-3-hydroxyphenoxy)methyl]-[2,4′-bipyridine]-6-carbaldehyde]", "values": [{"measurement": "Delta-p50 (%)", "value": 17.4, "unit": "%"}]}, {"compound": "CCOc1cccc(C(=O)N2CCOC[C@H]2COc2cccc(O)c2C=O)c1C=O", "note": "[Compound 3, 2-ethoxy-6-[(3S)-3-[(2-formyl-3-hydroxyphenoxy)methyl]morpholine-4-carbonyl]benzaldehyde]", "values": [{"measurement": "Delta-p50 (%)", "value": 73.6, "unit": "%"}]}, {"compound": "O=Cc1ccccc1C(=O)N1CCCC[C@@H]1COc1cccc(O)c1C=O", "note": "[Compound 17, 2-{[(2R)-1-(2-formylbenzoyl)piperidin-2-yl]methoxy}-6-hydroxybenzaldehyde]", "values": [{"measurement": "Delta-p50 (%)", "value": 67, "unit": "%"}]}, {"compound": "O=Cc1nc(-c2ncccc2COc2cccc(O)c2C=O)ccc1O", "note": "[Compound 19, 3′-[(2-formyl-3-hydroxyphenoxy)methyl]-5-hydroxy-[2,2′-bipyridine]-6-carbaldehyde]", "values": [{"measurement": "Delta-p50 (%)", "value": 11, "unit": "%"}]}, {"compound": "O=Cc1c(O)cccc1C(=O)N1CCCC[C@H]1COc1ccc2c(c1C=O)CCO2", "note": "[Compound 44, 5-{[(2S)-1-(2-formyl-3-hydroxybenzoyl)piperidin-2-yl]methoxy}-2,3-dihydro-1-benzofuran-4-carbaldehyde]", "values": [{"measurement": "Delta-p50 (%)", "value": 34.2, "unit": "%"}]}, {"compound": "Cc1cccc(C(=O)N2CCCC[C@@H]2COc2cccc(O)c2C=O)c1C=O", "note": "[Compound 46, 2-[(2R)-2-[(2-formyl-3-hydroxyphenoxy)methyl]piperidine-1-carbonyl]-6-methylbenzaldehyde]", "values": [{"measurement": "Delta-p50 (%)", "value": 69, "unit": "%"}]}, {"compound": "O=Cc1ccc(C(=O)N2CCC[C@@H](COc3cccc(O)c3C=O)C2)cc1", "note": "[Compound 28, 2-{[(3R)-1-(4-formylbenzoyl)piperidin-3-yl]methoxy}-6-hydroxybenzaldehyde]", "values": [{"measurement": "Delta-p50 (%)", "value": 45, "unit": "%"}]}, {"compound": "O=Cc1cccc(-c2ncccc2COc2cccc(O)c2C=O)n1", "note": "[Compound 10, 3′-[(2-formyl-3-hydroxyphenoxy)methyl]-[2,2′-bipyridine]-6-carbaldehyde]", "values": [{"measurement": "Delta-p50 (%)", "value": 0.2, "unit": "%"}]}, {"compound": "CCOc1cccc(C(=O)N2CCCC[C@@H]2COc2cccc(O)c2C=O)c1C=O", "note": "[Compound 50, 2-ethoxy-6-[(2R)-2-[(2-formyl-3-hydroxyphenoxy)methyl]piperidine-1-carbonyl]benzaldehyde]", "values": [{"measurement": "Delta-p50 (%)", "value": 45.3, "unit": "%"}]}, {"compound": "COc1cccc(C(=O)N2CCOC[C@H]2COc2cccc(O)c2C=O)c1C=O", "note": "[Compound 48, 2-[(3S)-3-[(2-formyl-3-hydroxyphenoxy)methyl]morpholine-4-carbonyl]-6-methoxybenzaldehyde]", "values": [{"measurement": "Delta-p50 (%)", "value": 70.3, "unit": "%"}]}, {"compound": "O=Cc1c(O)cccc1OC[C@@H]1CCCCN1C(=O)c1cccc(F)c1C=O", "note": "[Compound 47, 2-fluoro-6-[(2S)-2-[(2-formyl-3-hydroxyphenoxy)methyl]piperidine-1-carbonyl]benzaldehyde]", "values": [{"measurement": "Delta-p50 (%)", "value": 70, "unit": "%"}]}, {"compound": "O=Cc1ccc(Cl)cc1C(=O)N1CCCC[C@H]1COc1cccc(O)c1C=O", "note": "[Compound 16, 4-chloro-2-[(2S)-2-[(2-formyl-3-hydroxyphenoxy)methyl]piperidine-1-carbonyl]benzaldehyde]", "values": [{"measurement": "Delta-p50 (%)", "value": 39, "unit": "%"}]}, {"compound": "O=Cc1cccc(-c2ccccc2COc2cccc(O)c2C=O)n1", "note": "[Compound 24, 6-{2-[(2-formyl-3-hydroxyphenoxy)methyl]phenyl}pyridine-2-carbaldehyde]", "values": [{"measurement": "Delta-p50 (%)", "value": 11, "unit": "%"}]}, {"compound": "Cc1cccc(C(=O)N2CCCC[C@H]2COc2cccc(O)c2C=O)c1C=O", "note": "[Compound 34, 2-[(2S)-2-[(2-formyl-3-hydroxyphenoxy)methyl]piperidine-1-carbonyl]-6-methylbenzaldehyde]", "values": [{"measurement": "Delta-p50 (%)", "value": 78, "unit": "%"}]}, {"compound": "O=Cc1ccc(C(=O)N2CCC[C@H](COc3cccc(O)c3C=O)C2)cc1", "note": "[Compound 23, 2-{[(3S)-1-(4-formylbenzoyl)piperidin-3-yl]methoxy}-6-hydroxybenzaldehyde]", "values": [{"measurement": "Delta-p50 (%)", "value": 20, "unit": "%"}]}, {"compound": "CC1(C)C[C@@H](COc2cccc(O)c2C=O)N(C(=O)c2ccccc2C=O)C1", "note": "[Compound 43, 2-{[(2S)-1-(2-formylbenzoyl)-4,4-dimethylpyrrolidin-2-yl]methoxy}-6-hydroxybenzaldehyde]", "values": [{"measurement": "Delta-p50 (%)", "value": 70, "unit": "%"}]}, {"compound": "O=Cc1c(O)cccc1OC[C@@H]1CCCCN1C(=O)c1cccc(Cl)c1C=O", "note": "[Compound 51, 2-chloro-6-[(2S)-2-[(2-formyl-3-hydroxyphenoxy)methyl]piperidine-1-carbonyl]benzaldehyde]", "values": [{"measurement": "Delta-p50 (%)", "value": 65.5, "unit": "%"}]}, {"compound": "O=Cc1ccccc1C(=O)N1CCC[C@H]1COc1cccc(O)c1C=O", "note": "[Compound 20, 2-{[(2S)-1-(2-formylbenzoyl)pyrrolidin-2-yl]methoxy}-6-hydroxybenzaldehyde]", "values": [{"measurement": "Delta-p50 (%)", "value": 32, "unit": "%"}]}, {"compound": "O=Cc1ccccc1N1C(=O)CC[C@H]1COc1cccc(O)c1C=O", "note": "[Compound 21, 2-{[(2S)-1-(2-formylphenyl)-5-oxopyrrolidin-2-yl]methoxy}-6-hydroxybenzaldehyde]", "values": [{"measurement": "Delta-p50 (%)", "value": 23, "unit": "%"}]}, {"compound": "O=Cc1ccccc1C(=O)N1CCOC[C@H]1COc1cccc(O)c1C=O", "note": "[Compound 36, 2-{[(3S)-4-(2-formylbenzoyl)morpholin-3-yl]methoxy}-6-hydroxybenzaldehyde]", "values": [{"measurement": "Delta-p50 (%)", "value": 77, "unit": "%"}]}, {"compound": "O=Cc1cccc(-c2cccnc2COc2cccc(O)c2C=O)n1", "note": "[Compound 32, 2′-[(2-formyl-3-hydroxyphenoxy)methyl]-[2,3′-bipyridine]-6-carbaldehyde]", "values": [{"measurement": "Delta-p50 (%)", "value": 50, "unit": "%"}]}, {"compound": "O=Cc1ncc(-c2ncccc2COc2cccc(O)c2C=O)o1", "note": "[Compound 14, 5-(3-((2-formyl-3-hydroxyphenoxy)methyl)pyridin-2-yl)oxazole-2-carbaldehyde]", "values": [{"measurement": "Delta-p50 (%)", "value": 17.8, "unit": "%"}]}, {"compound": "O=Cc1ncccc1C(=O)N1CCCC[C@H]1COc1cccc(O)c1C=O", "note": "[Compound 25, 3-[(2S)-2-[(2-formyl-3-hydroxyphenoxy)methyl]piperidine-1-carbonyl]pyridine-2-carbaldehyde]", "values": [{"measurement": "Delta-p50 (%)", "value": 4, "unit": "%"}]}, {"compound": "Cc1ccc(-c2ncccc2COc2cccc(O)c2C=O)nc1C=O", "note": "[Compound 41, 3′-[(2-formyl-3-hydroxyphenoxy)methyl]-5-methyl-[2,2′-bipyridine]-6-carbaldehyde]", "values": [{"measurement": "Delta-p50 (%)", "value": 29.1, "unit": "%"}]}, {"compound": "CC(C)Oc1cccc(C(=O)N2CCCC[C@H]2COc2cccc(O)c2C=O)c1C=O", "note": "[Compound 40, 2-[(2S)-2-[(2-formyl-3-hydroxyphenoxy)methyl]piperidine-1-carbonyl]-6-(propan-2-yloxy)benzaldehyde]", "values": [{"measurement": "Delta-p50 (%)", "value": 72.5, "unit": "%"}]}, {"compound": "O=Cc1ccccc1C(=O)N1CCC[C@@H](COc2cccc(O)c2C=O)C1", "note": "[Compound 26, 2-{[(3R)-1-(2-formylbenzoyl)piperidin-3-yl]methoxy}-6-hydroxybenzaldehyde]", "values": [{"measurement": "Delta-p50 (%)", "value": 56, "unit": "%"}]}, {"compound": "O=Cc1ccc(F)cc1C(=O)N1CCCC[C@H]1COc1cccc(O)c1C=O", "note": "[Compound 35, 4-fluoro-2-[(2S)-2-[(2-formyl-3-hydroxyphenoxy)methyl]piperidine-1-carbonyl]benzaldehyde]", "values": [{"measurement": "Delta-p50 (%)", "value": 70, "unit": "%"}]}, {"compound": "O=Cc1cccc(C(=O)N2CCC[C@@H](COc3cccc(O)c3C=O)C2)c1", "note": "[Compound 27, 2-{[(3R)-1-(3-formylbenzoyl)piperidin-3-yl]methoxy}-6-hydroxybenzaldehyde]", "values": [{"measurement": "Delta-p50 (%)", "value": 74, "unit": "%"}]}, {"compound": "O=Cc1cccc(-c2cnccc2COc2cccc(O)c2C=O)n1", "note": "[Compound 31, 4′-[(2-formyl-3-hydroxyphenoxy)methyl]-[2,3′-bipyridine]-6-carbaldehyde]", "values": [{"measurement": "Delta-p50 (%)", "value": 3.5, "unit": "%"}]}, {"compound": "O=Cc1cccc(N2C(=O)CC[C@H]2COc2cccc(O)c2C=O)c1", "note": "[Compound 5, 2-{[(2S)-1-(3-formylphenyl)-5-oxopyrrolidin-2-yl]methoxy}-6-hydroxybenzaldehyde]", "values": [{"measurement": "Delta-p50 (%)", "value": 79, "unit": "%"}]}, {"compound": "COc1cccc(C(=O)N2CCCC[C@@H]2COc2cccc(O)c2C=O)c1C=O", "note": "[Compound 49, 2-[(2R)-2-[(2-formyl-3-hydroxyphenoxy)methyl]piperidine-1-carbonyl]-6-methoxybenzaldehyde]", "values": [{"measurement": "Delta-p50 (%)", "value": 59, "unit": "%"}]}, {"compound": "O=Cc1c(O)cccc1OC[C@@H]1COCCN1C(=O)c1cccc(O)c1C=O", "note": "[Compound 4, (S)-2-((4-(2-formyl-3-hydroxybenzoyl)morpholin-3-yl)methoxy)-6-hydroxybenzaldehyde]", "values": [{"measurement": "Delta-p50 (%)", "value": 30.9, "unit": "%"}]}, {"compound": "O=Cc1cc(-c2ccccc2COc2cccc(O)c2C=O)co1", "note": "[Compound 18, 4-{2-[(2-formyl-3-hydroxyphenoxy)methyl]phenyl}furan-2-carbaldehyde]", "values": [{"measurement": "Delta-p50 (%)", "value": 17, "unit": "%"}]}, {"compound": "O=Cc1ccccc1C(=O)N1CCC[C@H](COc2cccc(O)c2C=O)C1", "note": "[Compound 29, 2-{[(3S)-1-(2-formylbenzoyl)piperidin-3-yl]methoxy}-6-hydroxybenzaldehyde]", "values": [{"measurement": "Delta-p50 (%)", "value": 82, "unit": "%"}]}]}
